Measured values: ChEMBL document CHEMBL1134758, “New probes of the agonist binding site of metabotropic glutamate receptors” (Bioorg Med Chem Lett, 2001)

Legend:
[1] = target: T1, Metabotropic glutamate receptor 8 (Rattus norvegicus, UniProt P70579); test: Agonist activity in rat at Metabotropic glutamate receptor 8 expressed in HEK293 cells; type: functional, cell-based
[2] = target: T1, Metabotropic glutamate receptor 8; test: Agonist activity in rat at mGlu8a receptor expressed in HEK293 cells; type: functional, cell-based
[3] = target: Metabotropic glutamate receptor 2 (Rattus norvegicus) (UniProt P31421); test: (§1) Maximal effect obtained with 1 mM of the drug expressed as percent of maxiaml effect of glutamate in rat at mGlu2 receptor expressed in HEK293 cells; type: functional, cell-based
[4] = target: Metabotropic glutamate receptor 1 (Rattus norvegicus, UniProt P23385); test: Agonist activity in rat at mGlu1a receptor expressed in HEK293 cells; type: functional, cell-based
[5] = target: Metabotropic glutamate receptor 1 (Rattus norvegicus) (UniProt P23385); test: Maximal effect obtained with 1 mM of the drug expressed as percent of maxiaml effect of glutamate in rat at mGlu1a receptor expressed in HEK293 cells; type: functional, cell-based
[6] = target: Metabotropic glutamate receptor 8 (Rattus norvegicus) (UniProt P70579); test: Maximal effect obtained with 1 mM of the drug expressed as percent of maxiaml effect of glutamate in rat at mGlu8a receptor expressed in HEK293 cells; type: functional, cell-based
[7] = target: Metabotropic glutamate receptor 2 (Rattus norvegicus, UniProt P31421); test: Agonist activity in rat at mGlu2 receptor expressed in HEK293 cells; type: functional, cell-based
[8] = target: Metabotropic glutamate receptor 2 (Rattus norvegicus) (UniProt P31421); test: as §1; type: cell-based

T1 sequence (P70579 whole entry): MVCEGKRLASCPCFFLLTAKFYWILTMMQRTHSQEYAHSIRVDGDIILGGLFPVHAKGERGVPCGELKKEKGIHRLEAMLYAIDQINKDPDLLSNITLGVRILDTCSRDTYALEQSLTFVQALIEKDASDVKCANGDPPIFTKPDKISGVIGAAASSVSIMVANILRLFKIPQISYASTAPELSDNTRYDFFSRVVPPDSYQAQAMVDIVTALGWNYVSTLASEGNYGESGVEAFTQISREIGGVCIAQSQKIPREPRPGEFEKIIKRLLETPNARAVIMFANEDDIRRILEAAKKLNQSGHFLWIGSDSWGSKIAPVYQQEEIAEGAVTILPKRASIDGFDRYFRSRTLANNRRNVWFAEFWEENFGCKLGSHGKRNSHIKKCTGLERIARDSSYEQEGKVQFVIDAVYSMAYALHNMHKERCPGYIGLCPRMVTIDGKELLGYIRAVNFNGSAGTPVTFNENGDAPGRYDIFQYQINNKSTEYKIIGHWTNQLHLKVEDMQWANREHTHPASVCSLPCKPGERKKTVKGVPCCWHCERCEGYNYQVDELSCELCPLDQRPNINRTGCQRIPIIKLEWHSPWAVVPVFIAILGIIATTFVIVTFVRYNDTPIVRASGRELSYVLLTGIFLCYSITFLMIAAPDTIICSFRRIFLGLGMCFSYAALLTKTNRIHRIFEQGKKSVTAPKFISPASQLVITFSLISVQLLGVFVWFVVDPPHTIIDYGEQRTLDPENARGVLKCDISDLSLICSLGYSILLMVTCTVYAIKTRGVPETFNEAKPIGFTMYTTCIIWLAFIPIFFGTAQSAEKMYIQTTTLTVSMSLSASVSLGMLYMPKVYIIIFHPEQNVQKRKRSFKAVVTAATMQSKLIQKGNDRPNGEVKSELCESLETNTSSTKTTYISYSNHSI
Sequence of Metabotropic glutamate receptor 8 (Rattus norvegicus) (P70579 whole entry): as above
Sequence of Metabotropic glutamate receptor 2 (P31421 whole entry): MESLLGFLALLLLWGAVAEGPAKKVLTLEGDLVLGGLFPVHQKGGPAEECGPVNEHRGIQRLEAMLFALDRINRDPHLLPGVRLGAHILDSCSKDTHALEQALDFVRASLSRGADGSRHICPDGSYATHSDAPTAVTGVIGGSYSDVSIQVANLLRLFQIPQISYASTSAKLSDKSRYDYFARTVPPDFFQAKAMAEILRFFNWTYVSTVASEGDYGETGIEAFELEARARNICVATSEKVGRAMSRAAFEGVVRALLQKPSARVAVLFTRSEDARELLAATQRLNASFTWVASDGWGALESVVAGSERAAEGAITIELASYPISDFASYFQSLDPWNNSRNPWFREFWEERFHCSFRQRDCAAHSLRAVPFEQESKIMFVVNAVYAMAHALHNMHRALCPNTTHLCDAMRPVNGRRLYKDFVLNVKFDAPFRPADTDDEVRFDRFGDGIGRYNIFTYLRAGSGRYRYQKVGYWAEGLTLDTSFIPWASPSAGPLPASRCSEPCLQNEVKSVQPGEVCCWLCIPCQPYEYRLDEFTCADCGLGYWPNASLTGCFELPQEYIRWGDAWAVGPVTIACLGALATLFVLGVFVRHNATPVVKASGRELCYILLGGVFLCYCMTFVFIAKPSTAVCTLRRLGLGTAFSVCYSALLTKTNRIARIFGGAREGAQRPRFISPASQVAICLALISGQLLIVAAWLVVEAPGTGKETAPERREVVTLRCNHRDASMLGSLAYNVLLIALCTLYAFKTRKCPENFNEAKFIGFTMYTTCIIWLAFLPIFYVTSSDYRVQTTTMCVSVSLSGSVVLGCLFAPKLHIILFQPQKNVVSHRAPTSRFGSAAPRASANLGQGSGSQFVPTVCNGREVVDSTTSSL
Sequence of Metabotropic glutamate receptor 1 (Rattus norvegicus) (P23385 19-1199 limits assumed): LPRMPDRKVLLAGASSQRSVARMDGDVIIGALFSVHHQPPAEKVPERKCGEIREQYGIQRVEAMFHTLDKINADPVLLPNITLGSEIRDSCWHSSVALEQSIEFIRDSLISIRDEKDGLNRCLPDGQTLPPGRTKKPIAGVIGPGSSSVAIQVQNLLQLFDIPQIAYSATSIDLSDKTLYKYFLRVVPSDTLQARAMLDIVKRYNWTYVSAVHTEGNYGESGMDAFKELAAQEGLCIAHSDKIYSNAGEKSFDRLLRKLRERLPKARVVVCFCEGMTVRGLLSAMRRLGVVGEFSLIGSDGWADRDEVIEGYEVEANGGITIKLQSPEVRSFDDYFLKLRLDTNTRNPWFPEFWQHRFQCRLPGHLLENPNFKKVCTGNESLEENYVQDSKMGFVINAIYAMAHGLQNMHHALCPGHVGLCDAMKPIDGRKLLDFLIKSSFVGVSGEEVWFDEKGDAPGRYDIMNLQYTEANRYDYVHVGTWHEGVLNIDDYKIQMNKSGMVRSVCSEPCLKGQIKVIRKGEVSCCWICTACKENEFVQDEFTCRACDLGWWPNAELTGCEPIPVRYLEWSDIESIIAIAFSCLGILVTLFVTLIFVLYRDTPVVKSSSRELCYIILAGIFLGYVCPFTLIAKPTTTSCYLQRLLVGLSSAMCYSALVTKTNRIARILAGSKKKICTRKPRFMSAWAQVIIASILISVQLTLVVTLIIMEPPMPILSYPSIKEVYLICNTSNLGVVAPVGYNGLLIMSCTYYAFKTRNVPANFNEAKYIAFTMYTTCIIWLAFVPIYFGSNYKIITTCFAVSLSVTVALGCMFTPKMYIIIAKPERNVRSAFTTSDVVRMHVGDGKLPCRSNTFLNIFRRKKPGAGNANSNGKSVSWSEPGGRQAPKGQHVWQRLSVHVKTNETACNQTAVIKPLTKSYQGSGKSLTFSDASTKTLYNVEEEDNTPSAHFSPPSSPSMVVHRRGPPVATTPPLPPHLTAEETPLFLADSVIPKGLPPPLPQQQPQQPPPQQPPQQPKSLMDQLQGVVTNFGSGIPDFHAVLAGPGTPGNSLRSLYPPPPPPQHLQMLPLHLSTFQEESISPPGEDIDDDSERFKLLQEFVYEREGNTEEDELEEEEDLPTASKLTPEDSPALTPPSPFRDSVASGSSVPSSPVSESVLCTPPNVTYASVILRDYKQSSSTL
Sequence of Metabotropic glutamate receptor 1 (P23385 whole entry): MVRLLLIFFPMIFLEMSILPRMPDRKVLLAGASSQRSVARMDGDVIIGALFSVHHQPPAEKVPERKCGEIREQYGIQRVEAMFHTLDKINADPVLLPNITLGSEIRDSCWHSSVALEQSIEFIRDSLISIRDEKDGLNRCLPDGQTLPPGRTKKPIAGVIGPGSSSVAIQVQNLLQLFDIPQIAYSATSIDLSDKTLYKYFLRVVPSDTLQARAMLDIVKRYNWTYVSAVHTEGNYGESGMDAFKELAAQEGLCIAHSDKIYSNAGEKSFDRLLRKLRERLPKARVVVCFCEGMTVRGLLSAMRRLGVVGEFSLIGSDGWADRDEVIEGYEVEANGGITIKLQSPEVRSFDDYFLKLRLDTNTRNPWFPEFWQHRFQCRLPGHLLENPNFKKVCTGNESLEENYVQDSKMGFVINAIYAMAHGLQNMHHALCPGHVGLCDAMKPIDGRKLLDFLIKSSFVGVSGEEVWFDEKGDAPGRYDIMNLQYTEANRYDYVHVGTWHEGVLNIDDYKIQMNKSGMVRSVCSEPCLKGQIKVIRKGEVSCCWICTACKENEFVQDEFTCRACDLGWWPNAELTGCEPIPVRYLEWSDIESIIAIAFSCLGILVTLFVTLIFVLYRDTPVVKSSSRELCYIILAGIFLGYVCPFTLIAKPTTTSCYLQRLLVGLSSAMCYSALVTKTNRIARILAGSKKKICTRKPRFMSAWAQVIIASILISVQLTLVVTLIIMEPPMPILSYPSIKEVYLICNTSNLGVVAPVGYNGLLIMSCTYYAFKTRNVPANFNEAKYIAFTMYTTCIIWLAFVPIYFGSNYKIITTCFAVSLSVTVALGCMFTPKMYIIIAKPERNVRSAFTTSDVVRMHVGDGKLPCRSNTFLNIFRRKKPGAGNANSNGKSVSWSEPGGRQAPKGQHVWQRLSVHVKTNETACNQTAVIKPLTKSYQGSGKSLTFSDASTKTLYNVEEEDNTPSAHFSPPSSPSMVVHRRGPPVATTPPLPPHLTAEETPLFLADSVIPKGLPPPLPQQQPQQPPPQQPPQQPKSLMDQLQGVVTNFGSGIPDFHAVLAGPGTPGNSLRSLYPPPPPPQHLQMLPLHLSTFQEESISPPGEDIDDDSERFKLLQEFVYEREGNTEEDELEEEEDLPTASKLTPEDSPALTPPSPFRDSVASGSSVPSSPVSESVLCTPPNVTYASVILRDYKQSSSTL
Sequence of Metabotropic glutamate receptor 2 (Rattus norvegicus) (P31421 19-872 limits assumed): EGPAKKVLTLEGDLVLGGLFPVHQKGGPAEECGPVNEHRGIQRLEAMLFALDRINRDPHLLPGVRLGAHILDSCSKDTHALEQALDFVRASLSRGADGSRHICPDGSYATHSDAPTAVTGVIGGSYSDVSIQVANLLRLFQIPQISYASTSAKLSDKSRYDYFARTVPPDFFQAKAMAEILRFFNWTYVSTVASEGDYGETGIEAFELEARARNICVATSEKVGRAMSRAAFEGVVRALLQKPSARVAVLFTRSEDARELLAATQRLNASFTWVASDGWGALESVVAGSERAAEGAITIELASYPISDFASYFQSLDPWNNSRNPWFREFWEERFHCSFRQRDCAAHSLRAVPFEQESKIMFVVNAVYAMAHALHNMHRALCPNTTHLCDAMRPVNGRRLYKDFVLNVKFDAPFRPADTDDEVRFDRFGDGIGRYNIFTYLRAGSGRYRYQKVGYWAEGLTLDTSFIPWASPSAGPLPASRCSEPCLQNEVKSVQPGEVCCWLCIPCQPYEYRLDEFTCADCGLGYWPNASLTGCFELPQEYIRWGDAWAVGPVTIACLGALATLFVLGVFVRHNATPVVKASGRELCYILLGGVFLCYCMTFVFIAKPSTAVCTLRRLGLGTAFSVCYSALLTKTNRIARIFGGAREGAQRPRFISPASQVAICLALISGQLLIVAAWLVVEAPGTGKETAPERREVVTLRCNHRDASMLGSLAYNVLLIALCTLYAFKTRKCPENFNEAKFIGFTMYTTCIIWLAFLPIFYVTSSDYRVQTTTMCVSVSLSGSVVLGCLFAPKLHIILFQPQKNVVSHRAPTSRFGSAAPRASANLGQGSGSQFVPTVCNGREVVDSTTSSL

Compound | EC50 [1] [µM] | EC50 [2] [µM] | Rmax [3] [%] | EC50 [4] [µM] | Rmax [5] [%] | Rmax [6] [%] | EC50 [7] [µM] | Rmax [8] [%]
N[C@@H](CCC(=O)O)C(=O)O [GLUTAMIC ACID] | 8 |  |  |  |  |  |  | 
N[C@@H](C[C@H](O)C(=O)O)C(=O)O |  | 53 | 60 | 11 | 95 | 94 | 137 | 
N[C@@H](C[C@@H](O)C(=O)O)C(=O)O |  | 69 |  | 373 | 70 | 54 | 161 | 52
